Laboratory results: US12522606B2, “Modified pyrrolo- and pyrazolo-pyrimidines for prostate cancer therapy” (University of Washington, priority 2020, dated 2026)

Assays:
LNCaP95 = test: MTT proliferation assay, LNCaP95; format: cell-based; conditions: Homo sapiens, LNCaP-95; for EC50: Table 1, LNCaP95 (AR+ PCa), unit inferred; for inhibition at 10 µM: read-out: MTT % inhib @ 10 μM LNCaP95
Method: Anti-tumor activity was determined by screening a series of compounds against the castrate-resistant, androgen-receptor-positive, prostate cancer cell line LNCaP95. […] Inhibition of proliferation was determined based on the level of LNCaP95 cell growth suppression using an MTT assay (NAD(P)H-dependent cellular oxidoreductase enzymatic activities)) read at 72 and 96 hours after addition of the compounds. […] Each cell line was be tested in quadruplicate.

PC3 = test: MTT proliferation assay, PC3; conditions: Homo sapiens; for inhibition at 10 µM: PC-3, read-out: MTT % inhib @ 10 μM PC3; for EC50: read-out: EC50 PC3

SMILES | EC50 (LNCaP95) | inhibition at 10 µM (LNCaP95) | inhibition at 10 µM (PC3) | EC50 (PC3)
COCCOc1ncnc2c1c(-c1ccc3ccccc3c1)cn2CC(C)(C)O [Example 7, 1-(4-(2-methoxyethoxy)-5-(naphthalen-2-yl)-7H-pyrrolo[2,3-d]pyrimidin-7-yl)-2-methylpropan-2-ol] | 12 µM | 23.9% | -36.2% | > 20 µM
C#CCCC1(CCOC(=O)NCCNc2ncnc3c2c(-c2ccc4cc(OCC)ccc4c2)cn3CC(C)(C)O)N=N1 [Example 10, 2-(3-(but-3-ynyl)-3H-diazirin-3-yl)ethyl 2-(5-(6-ethoxynaphthalen-2-yl)-7-(2-hydroxy-2-methylpropyl)-7H-pyrrolo[2,3-d]pyrimidin-4-ylamino)ethylcarbamate] | 2 µM | – | – | > 20 µM
CNc1ncnc2c1c(-c1cccc(C(C)C)c1)nn2CC(C)(C)O [Example 16, 1-(3-(3-isopropylphenyl)-4-(methylamino)-1H-pyrazolo[3,4-d]pyrimidin-1-yl)-2-methylpropan-2-ol] | > 15 µM | 11.3% | -10.5% | > 20 µM
CC(C)(O)Cn1cc(-c2ccc3cc(OC4CC4)ccc3c2)c2c(NC3CC3)ncnc21 [Example 17, 1-(5-(6-cyclopropoxynaphthalen-2-yl)-4-(cyclopropylamino)-7H-pyrrolo[2,3-d]pyrimidin-7-yl)-2-methylpropan-2-ol] | 2.5 µM | – | – | 10 µM
CNc1ncnc2c1c(-c1cccc(-c3ccccc3)c1)nn2CC(C)(C)O [Example 19, 1-(3-(biphenyl-3-yl)-4-(methylamino)-1H-pyrazolo[3,4-d]pyrimidin-1-yl)-2-methylpropan-2-ol] | 5 µM | 21.3% | 4.4% | > 20 µM
CNc1ncnc2c1c(-c1ccc(-c3ccccc3)cc1F)nn2CC(C)(C)O [Example 20, 1-(3-(3-fluorobiphenyl-4-yl)-4-(methylamino)-1H-pyrazolo[3,4-d]pyrimidin-1-yl)-2-methylpropan-2-ol] | > 20 µM | 16.5% | 8.3% | > 20 µM
CNc1ncnc2c1c(-c1cccc(C(C)C)c1)cn2CC(C)(C)OC [Example 21, 5-(3-isopropylphenyl)-7-(2-methoxy-2-methylpropyl)-N-methyl-7H-pyrrolo[2,3-d]pyrimidin-4-amine] | 7 µM | -2.7% | -5.4% | > 20 µM
CCOc1ccc2cc(-c3cn(CC(C)(C)O)c4ncnc(NCCN)c34)ccc2c1 [Example 23, 1-(4-(2-aminoethylamino)-5-(6-ethoxynaphthalen-2-yl)-7H-pyrrolo[2,3-d]pyrimidin-7-yl)-2-methylpropan-2-ol] | > 10 µM | 22.9% | 27.2% | > 20 µM
CC(C)(O)Cn1cc(-c2ccc3cc(OC4CC4)ccc3c2)c2c(NCCN)ncnc21 [Example 24, 1-(4-(2-aminoethylamino)-5-(6-cyclopropoxynaphthalen-2-yl)-7H-pyrrolo[2,3-d]pyrimidin-7-yl)-2-methylpropan-2-ol] | > 10 µM | 35.1% | 6.7% | > 20 µM
CCOc1ccc2cc(-c3cn(CC(C)(C)O)c4ncnc(NCCO)c34)ccc2c1 [Example 25, 1-(5-(6-ethoxynaphthalen-2-yl)-4-(2-hydroxyethylamino)-7H-pyrrolo[2,3-d]pyrimidin-7-yl)-2-methylpropan-2-ol] | 5 µM | 34.6% | 10.3% | > 20 µM
CC(C)(O)Cn1cc(-c2ccc3cc(OC4CC4)ccc3c2)c2c(NCCO)ncnc21 [Example 26, 1-(5-(6-cyclopropoxynaphthalen-2-yl)-4-(2-hydroxyethylamino)-7H-pyrrolo[2,3-d]pyrimidin-7-yl)-2-methylpropan-2-ol] | 5 µM | 40.6% | 9.2% | > 20 µM
CC(C)(O)Cn1cc(-c2ccc3cc(OC4CC4)ccc3c2)c2c(NCCOCCN)ncnc21 [Example 27, 1-(4-(2-(2-aminoethoxy)ethylamino)-5-(6-cyclopropoxynaphthalen-2-yl)-7H-pyrrolo[2,3-d]pyrimidin-7-yl)-2-methylpropan-2-ol] | > 10 µM | 8.6% | -5.2% | > 20 µM
CC(C)(O)Cn1cc(-c2ccc3cc(OC4CC4)ccc3c2)c2c(NCCOCCNC(=O)OC3CC/C=C/CCC3)ncnc21 (stereo not drawn) [Example 29, trans-cyclooct-4-enyl 2-(2-(5-(6-cyclopropoxynaphthalen-2-yl)-7-(2-hydroxy-2-methylpropyl)-7H-pyrrolo[2,3-d]pyrimidin-4-ylamino)ethoxy)ethylcarbamate] | 5 µM | 33.7% | -31% | > 20 µM
CC(C)(O)Cn1cc(-c2ccc(-c3ccccc3)cc2)c2c(NCCO)ncnc21 [Example 30, 1-(5-(biphenyl-4-yl)-4-(2-hydroxyethylamino)-7H-pyrrolo[2,3d]pyrimidin-7-yl)-2-methylpropan-2-ol] | 4 µM | 37.8% | -18.1% | > 20 µM
CCc1ccc(-c2ccc(-c3cn(CC(C)(C)OC)c4ncnc(NC)c34)cc2)cc1 [Example 34, 5-(4′-ethylbiphenyl-4-yl)-7-(2-methoxy-2-methylpropyl)-N-methyl-7H-pyrrolo[2,3-d]pyrimidin-4-amine] | 6 µM | 29.7% | 9.1% | > 20 µM
CCOCCNc1ncnc2c1c(-c1ccc3cc(OC4CC4)ccc3c1)cn2CC(C)(C)O [Example 35, 1-(5-(6-cyclopropoxynaphthalen-2-yl)-4-(2-ethoxyethylamino)-7H-pyrrolo[2,3-d]pyrimidin-7-yl)-2-methylpropan-2-ol] | 4 µM | 27.1% | 16.5% | > 20 µM
CCOCCNc1ncnc2c1c(-c1ccc3cc(OC(C)C)ccc3c1)cn2CC(C)(C)O [Example 36, 1-(4-(2-ethoxyethylamino)-5-(6-isopropoxynaphthalen-2-yl)-7H-pyrrolo[2,3-d]pyrimidin-7-yl)-2-methylpropan-2-ol] | 8 µM | 22% | 15.7% | > 20 µM
CCOCCNc1ncnc2c1c(-c1ccc(-c3ccccc3)cc1)cn2CC(C)(C)O [Example 37, 1-(5-(biphenyl-4-yl)-4-(2-ethoxyethylamino)-7H-pyrrolo[2,3-d]pyrimidin-7-yl)-2-methylpropan-2-ol] | > 10 µM | 8.4% | 9% | > 20 µM
CCOCCNc1ncnc2c1c(-c1ccc(-c3ccc(OC)cc3)cc1)cn2CC(C)(C)O [Example 38, 1-(4-(2-ethoxyethylamino)-5-(4′-methoxybiphenyl-4-yl)-7H-pyrrolo[2,3-d]pyrimidin-7-yl)-2-methylpropan-2-ol] | 4 µM | 39.5% | 11.6% | > 20 µM
CCOCCNc1ncnc2c1c(-c1ccc(-c3ccc(CC)cc3)cc1)cn2CC(C)(C)O [Example 39, 1-(4-(2-ethoxyethylamino)-5-(4′-ethylbiphenyl-4-yl)-7H-pyrrolo[2,3-d]pyrimidin-7-yl)-2-methylpropan-2-ol] | > 10 µM | 29.2% | 8.3% | > 20 µM
CCOCCNc1ncnc2c1c(-c1ccc(-c3ccc(Br)cc3)cc1)cn2CC(C)(C)O [Example 40, 1-(5-(4′-bromobiphenyl-4-yl)-4-(2-ethoxyethylamino)-7H-pyrrolo[2,3-d]pyrimidin-7-yl)-2-methylpropan-2-ol] | > 10 µM | -0.2% | 11.1% | > 20 µM
CCOc1ccc2cc(-c3cn(CC(C)(C)O)c4ncnc(NC5CC5)c34)ccc2c1 [Example 41, 1-(4-(cyclopropylamino)-5-(6-ethoxynaphthalen-2-yl)-7H-pyrrolo[2,3-d]pyrimidin-7-yl)-2-methylpropan-2-ol] | 6 µM | – | – | 10 µM
COc1ccc2cc(-c3cn(CC(C)(C)O)c4ncnc(NC5CC5)c34)ccc2c1 [Example 42, 1-(4-(cyclopropylamino)-5-(6-methoxynaphthalen-2-yl)-7H-pyrrolo[2,3-d]pyrimidin-7-yl)-2-methylpropan-2-ol] | 20 µM | – | – | > 20 µM
CC(C)Nc1ncnc2c1c(-c1ccc3cc(OC4CC4)ccc3c1)cn2CC(C)(C)O [Example 43, 1-(5-(6-cyclopropoxynaphthalen-2-yl)-4-(isopropylamino)-7H-pyrrolo[2,3-d]pyrimidin-7-yl)-2-methylpropan-2-ol] | 10 µM | – | – | 20 µM
CCOc1ccc2cc(-c3cn(CC(C)(C)O)c4ncnc(NC(C)C)c34)ccc2c1 [Example 44, 1-(5-(6-ethoxynaphthalen-2-yl)-4-(isopropylamino)-7H-pyrrolo[2,3-d]pyrimidin-7-yl)-2-methylpropan-2-ol] | 5 µM | – | – | 20 µM
COc1ccc2cc(-c3cn(CC(C)(C)O)c4ncnc(NC(C)C)c34)ccc2c1 [Example 45, 1-(4-(isopropylamino)-5-(6-methoxynaphthalen-2-yl)-7H-pyrrolo[2,3-d]pyrimidin-7-yl)-2-methylpropan-2-ol] | 5 µM | – | – | > 20 µM
